Measured values published in US9770026B2, “Substituted pyrimidine compound and uses thereof” (Shenyang Sinochem Agrochemicals R&D Co., Ltd., priority 2012, dated 2017).

Key:
corn rust = experiment: protectant activity in vivo against corn rust
cucumber downy mildew = experiment: protectant activity in vivo against cucumber downy mildew
[1] = tested on: Green peach aphids (Myzus Persicae Sulzer); experiment: bioactivity test against green peach aphid, airbrush foliar spray; type: in vivo; settings: for control (test results against green peach aphid): death rate after 48 hrs
How it was run: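 Death rate was scored at 48 hrs, held at 25±1 C and 60±5% RH, following airbrush foliar spray (0.5 mL, 10 psi) onto cabbage leaf discs bearing about 15-30 aphids. Test solutions: compound dissolved in 1:1 acetone:methanol, brought to concentration with 0.1% tween 80 water.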

carmine spider mite = experiment: bioactivity test against carmine spider mite, airbrush spray; type: in vivo; settings: for Insecticidal activity against carmine spider mite (% ): contrastive test; for control against carmine spider mite: mortality after 72 hrs
How it was run: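 Broadbean seedlings infested with adult mites were sprayed with compound (acetone/methanol stock diluted in 0.1% Tween 80 water) by airbrush at 0.7 kg/cm^2, 0.5 ml. Three replicates were run. Mortality was scored after 72 hrs.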

armyworm = experiment: bioactivity test against armyworm, airbrush spray; type: in vivo; settings: for control (test results against armyworm): mortality after 72 h
Diamond back moth = experiment: insecticidal activity against diamond back moth, airbrush spray; type: in vivo; settings: for control (test results against diamond back moth): mortality after 72 hrs
How it was run: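 Airbrush leaf-disc spray test: both faces of 2 cm cabbage discs received 0.5 ml of test solution at 0.7 kg/cm^2. Solutions were made in acetone:methanol (1:1) and brought to concentration with 0.1% Tween 80 in water. Ten second-instar larvae per disc, triplicates, were held at 25° C and 60˜70% R.H., with mortality recorded at 72 hrs.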

wheat powdery mildew = experiment: protectant activity in vivo against wheat powdery mildew; settings: for protectant activity against wheat powdery mildew in vivo: 400 ppm

Structure (SMILES) | control effect against cucumber downy mildew (%) (cucumber downy mildew; 400 mg/L, protectant activity) | Insecticidal activity against carmine spider mite (% ) (carmine spider mite; 600 mg/L) [%] | protectant activity against corn rust in vivo (corn rust; 400 ppm) [%] | control effect against cucumber downy mildew (%) (cucumber downy mildew; 25 mg/L, protectant activity) | control effect against cucumber downy mildew (%) (cucumber downy mildew; 50 mg/L, protectant activity) | control effect against cucumber downy mildew (%) (cucumber downy mildew; 100 mg/L, protectant activity) | protectant activity against cucumber downy mildew in vivo (cucumber downy mildew; 25 ppm) [%] | protectant activity against cucumber downy mildew in vivo (cucumber downy mildew; 50 ppm) [%] | protectant activity against cucumber downy mildew in vivo (cucumber downy mildew; 100 ppm) [%] | protectant activity against cucumber downy mildew in vivo (cucumber downy mildew; 400 ppm) [%] | control (test results against green peach aphid) ([1]; 100 ppm) [%] | control (test results against green peach aphid) ([1]; 600 ppm) [%] | control against carmine spider mite (carmine spider mite; 600 ppm) [%] | control (test results against armyworm) (armyworm; 600 ppm) [%] | control (test results against diamond back moth) (Diamond back moth; 600 ppm) [%] | protectant activity against wheat powdery mildew in vivo (wheat powdery mildew) [%] | further results
Cc1ncnc(NCc2ccc(Oc3ncc(C(F)(F)F)cc3Cl)cc2)c1Cl [CK23, reference compound] | 100 | 64 |  |  |  |  |  |  |  |  |  |  |  |  |  |  | pest or weed control at 6.25 µg/mL (corn rust; Zea mays, 168 h, read-out: control effect against corn rust (%), 6.25 mg/L, protectant activity): 0%; pest or weed control at 25 µg/mL (corn rust; Zea mays, 168 h, read-out: control effect against corn rust (%), 25 mg/L, protectant activity): 0%; pest or weed control at 100 µg/mL (corn rust; Zea mays, 168 h, read-out: control effect against corn rust (%), 100 mg/L, protectant activity): 0%; pest or weed control at 400 µg/mL (corn rust; Zea mays, 168 h, read-out: control effect against corn rust (%), 400 mg/L, protectant activity): 100%; pest or weed control at 25 µg/mL (cucumber downy mildew; Cucumis sativus, 168 h, read-out: control effect against cucumber downy mildew (%), 25 mg/L, protectant activity): 0%; pest or weed control at 50 µg/mL (cucumber downy mildew; Cucumis sativus, 168 h, read-out: control effect against cucumber downy mildew (%), 50 mg/L, protectant activity): 0%; pest or weed control at 100 µg/mL (cucumber downy mildew; Cucumis sativus, 168 h, read-out: control effect against cucumber downy mildew (%), 100 mg/L, protectant activity): 0%; pest or weed control at 600 µg/mL ([1]; Myzus persicae, foliar, 48 h, 600 mg/L, contrastive test, read-out: Insecticidal activity against peach aphid (%)): 0%; pest or weed control at 600 µg/mL (armyworm; 72 h, 600 mg/L, read-out: Insecticidal activity against armyworm (%)): 0%; pest or weed control at 600 µg/mL (Diamond back moth; 72 h, 600 mg/L): 0%; control effect against wheat powdery mildew (%) (wheat powdery mildew; 400 mg/L, protectant activity): 100%; pest or weed control at 6.25 µg/mL (wheat powdery mildew; Triticum aestivum, 168 h, read-out: control effect against wheat powdery mildew (%), 6.25 mg/L, protectant activity): 0%; pest or weed control at 25 µg/mL (wheat powdery mildew; Triticum aestivum, 168 h, read-out: control effect against wheat powdery mildew (%), 25 mg/L, protectant activity): 0%; pest or weed control at 100 µg/mL (wheat powdery mildew; Triticum aestivum, 168 h, read-out: control effect against wheat powdery mildew (%), 100 mg/L, protectant activity): 0%
FC(F)c1ncnc(NCCc2ccc(Oc3ccc(Cl)cc3)nc2)c1Cl [III-547] | 100 | 100 | 100 | 100 | 100 | 100 | 100 | 100 | 100 | 100 | 100 | 100 | 100 | 100 | 100 | 100 | Insecticidal activity against peach aphid (%) ([1]; 10 mg/L, contrastive test): 100%; Insecticidal activity against peach aphid (%) ([1]; 100 mg/L, contrastive test): 100%; Insecticidal activity against peach aphid (%) ([1]; 600 mg/L, contrastive test): 100%; control (test results against green peach aphid) ([1]; 10 ppm): 100%; Insecticidal activity against carmine spider mite (% ) (carmine spider mite; 100 mg/L): 100%; control against carmine spider mite (carmine spider mite; 100 ppm): 100%; Insecticidal activity against armyworm (%) (armyworm; 10 mg/L): 95%; Insecticidal activity against armyworm (%) (armyworm; 100 mg/L): 100%; Insecticidal activity against armyworm (%) (armyworm; 600 mg/L): 100%; control (test results against armyworm) (armyworm; 100 ppm): 100%; Insecticidal activity against diamond back moth (%) (Diamond back moth; 10 mg/L): 57%; Insecticidal activity against diamond back moth (%) (Diamond back moth; 100 mg/L): 100%; Insecticidal activity against diamond back moth (%) (Diamond back moth; 600 mg/L): 100%; control (test results against diamond back moth) (Diamond back moth; 100 ppm): 100%
CCc1ncnc(NCCc2ccc(Oc3cccc(C(F)(F)F)c3)nc2)c1Cl [III-201] | 100 |  | 100 | 100 | 100 | 100 | 100 | 100 | 100 | 100 | 100 | 100 | 100 | 100 | 100 | 100 | protectant activity against corn rust in vivo (corn rust; 100 ppm): 100%; control effect against cucumber downy mildew (%) (cucumber downy mildew; 12.5 mg/L, protectant activity): 98%
